Measurements published in ChEMBL document CHEMBL5120797, “Principles of Kinase Allosteric Inhibition and Pocket Validation” (J Med Chem, 2022).
One block for each compound: values may come before it.

How the values were obtained:
[1] = target: T1, Tyrosine-protein kinase ITK/TSK (Homo sapiens, UniProt Q08881); assay: Inhibition of human N-terminal His6 tagged ITK (354 to 620 residues) expressed in Sf9 insect cells incubated for 30 mins by time-resolved fluorescence assay
T1 sequence (Q08881 whole entry): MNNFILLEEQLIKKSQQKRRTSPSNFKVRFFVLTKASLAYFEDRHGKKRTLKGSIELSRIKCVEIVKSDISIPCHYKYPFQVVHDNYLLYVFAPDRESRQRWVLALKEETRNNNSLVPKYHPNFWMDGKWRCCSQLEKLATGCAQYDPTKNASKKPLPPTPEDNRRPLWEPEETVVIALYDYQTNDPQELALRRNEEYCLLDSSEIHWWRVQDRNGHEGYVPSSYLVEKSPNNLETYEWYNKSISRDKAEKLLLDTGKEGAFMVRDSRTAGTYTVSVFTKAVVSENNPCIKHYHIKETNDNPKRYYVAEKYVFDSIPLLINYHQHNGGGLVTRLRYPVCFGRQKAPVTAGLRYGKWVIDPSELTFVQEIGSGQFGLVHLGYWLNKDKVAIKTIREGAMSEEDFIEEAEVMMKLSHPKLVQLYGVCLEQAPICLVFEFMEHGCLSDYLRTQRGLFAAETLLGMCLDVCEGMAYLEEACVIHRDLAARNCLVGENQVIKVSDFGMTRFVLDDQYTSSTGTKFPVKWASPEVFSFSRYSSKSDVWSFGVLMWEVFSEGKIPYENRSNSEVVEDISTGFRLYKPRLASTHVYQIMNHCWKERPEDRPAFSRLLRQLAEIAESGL

[2] = target: Serine/threonine-protein kinase WNK1 (Homo sapiens, UniProt Q9H4A3); assay: Inhibition of human WNK1 (198 to 401 residues) using biotinylated STK3 as substrate incubated for 2 hrs by HTRF assay
Chain of Serine/threonine-protein kinase WNK1 (Q9H4A3 whole entry, the tested form may be a part): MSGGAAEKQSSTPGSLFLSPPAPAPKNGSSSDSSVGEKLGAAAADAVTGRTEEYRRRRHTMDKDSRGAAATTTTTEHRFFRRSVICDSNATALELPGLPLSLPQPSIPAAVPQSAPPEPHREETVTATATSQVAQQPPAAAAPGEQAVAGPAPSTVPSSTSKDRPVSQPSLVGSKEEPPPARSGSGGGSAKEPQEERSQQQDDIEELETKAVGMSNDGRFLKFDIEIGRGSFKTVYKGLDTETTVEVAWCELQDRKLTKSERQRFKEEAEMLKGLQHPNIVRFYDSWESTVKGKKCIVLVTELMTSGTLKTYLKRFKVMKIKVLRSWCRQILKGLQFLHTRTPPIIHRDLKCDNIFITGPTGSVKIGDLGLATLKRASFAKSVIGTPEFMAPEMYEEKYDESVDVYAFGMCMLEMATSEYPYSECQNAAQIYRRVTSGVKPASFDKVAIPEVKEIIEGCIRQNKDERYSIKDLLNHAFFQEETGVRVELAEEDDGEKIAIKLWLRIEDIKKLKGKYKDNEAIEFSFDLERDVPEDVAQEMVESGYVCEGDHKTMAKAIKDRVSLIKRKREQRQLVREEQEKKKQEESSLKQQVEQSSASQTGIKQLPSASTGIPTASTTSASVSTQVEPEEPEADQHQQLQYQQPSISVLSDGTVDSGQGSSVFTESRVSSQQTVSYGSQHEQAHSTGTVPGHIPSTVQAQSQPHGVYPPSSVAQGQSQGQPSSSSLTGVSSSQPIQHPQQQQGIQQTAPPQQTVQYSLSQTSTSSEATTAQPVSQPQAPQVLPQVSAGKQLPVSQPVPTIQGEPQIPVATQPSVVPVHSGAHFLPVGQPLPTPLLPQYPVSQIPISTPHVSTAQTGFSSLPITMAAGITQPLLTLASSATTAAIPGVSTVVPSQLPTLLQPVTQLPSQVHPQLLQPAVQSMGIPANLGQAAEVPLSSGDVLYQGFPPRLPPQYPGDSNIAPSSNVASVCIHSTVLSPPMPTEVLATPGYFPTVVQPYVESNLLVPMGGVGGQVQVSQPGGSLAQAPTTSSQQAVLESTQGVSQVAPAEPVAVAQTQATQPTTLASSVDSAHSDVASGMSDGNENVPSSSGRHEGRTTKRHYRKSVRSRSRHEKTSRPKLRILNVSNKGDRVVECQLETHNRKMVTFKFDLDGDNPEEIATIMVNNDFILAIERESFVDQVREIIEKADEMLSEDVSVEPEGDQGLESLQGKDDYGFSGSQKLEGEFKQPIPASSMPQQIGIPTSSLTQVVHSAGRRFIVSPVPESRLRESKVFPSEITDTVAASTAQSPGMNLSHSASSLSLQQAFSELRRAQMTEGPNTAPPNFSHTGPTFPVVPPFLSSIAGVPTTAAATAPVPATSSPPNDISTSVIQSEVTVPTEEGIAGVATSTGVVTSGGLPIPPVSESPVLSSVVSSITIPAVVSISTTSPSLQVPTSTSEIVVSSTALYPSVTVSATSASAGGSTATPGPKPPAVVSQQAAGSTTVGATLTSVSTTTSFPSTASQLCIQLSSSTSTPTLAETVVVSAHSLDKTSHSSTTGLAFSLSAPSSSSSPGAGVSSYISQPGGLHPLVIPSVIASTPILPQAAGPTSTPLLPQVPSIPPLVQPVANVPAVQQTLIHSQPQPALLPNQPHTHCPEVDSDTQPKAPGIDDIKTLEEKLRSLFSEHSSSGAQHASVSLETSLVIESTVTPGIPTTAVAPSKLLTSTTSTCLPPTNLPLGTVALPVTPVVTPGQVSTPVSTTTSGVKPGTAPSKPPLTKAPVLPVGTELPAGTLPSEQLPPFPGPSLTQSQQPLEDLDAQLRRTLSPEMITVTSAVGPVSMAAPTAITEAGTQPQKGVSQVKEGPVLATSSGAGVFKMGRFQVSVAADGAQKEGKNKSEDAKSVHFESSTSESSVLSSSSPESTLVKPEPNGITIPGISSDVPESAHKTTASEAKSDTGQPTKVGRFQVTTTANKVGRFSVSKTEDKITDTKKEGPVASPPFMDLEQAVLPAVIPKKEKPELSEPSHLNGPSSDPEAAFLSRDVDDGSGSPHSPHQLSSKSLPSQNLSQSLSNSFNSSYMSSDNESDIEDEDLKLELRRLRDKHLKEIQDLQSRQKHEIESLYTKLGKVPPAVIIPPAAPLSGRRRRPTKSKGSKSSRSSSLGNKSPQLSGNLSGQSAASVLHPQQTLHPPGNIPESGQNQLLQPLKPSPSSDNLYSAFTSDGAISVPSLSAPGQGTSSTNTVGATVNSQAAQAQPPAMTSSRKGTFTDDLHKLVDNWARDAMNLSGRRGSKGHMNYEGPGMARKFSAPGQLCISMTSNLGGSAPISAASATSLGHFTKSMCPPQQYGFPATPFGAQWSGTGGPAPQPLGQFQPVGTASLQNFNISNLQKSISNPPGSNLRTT

[3] = Binding affinity to MEK1/2 (unknown origin) assessed as dissociation constant; parameters: species or system Homo sapiens
[4] = Inhibition of MEK1/2 (unknown origin); parameters: species or system Homo sapiens
[5] = target: Hepatocyte growth factor receptor (Homo sapiens, UniProt P08581); assay: Inhibition of c-Met (unknown origin)
Chain of Hepatocyte growth factor receptor (P08581 whole entry): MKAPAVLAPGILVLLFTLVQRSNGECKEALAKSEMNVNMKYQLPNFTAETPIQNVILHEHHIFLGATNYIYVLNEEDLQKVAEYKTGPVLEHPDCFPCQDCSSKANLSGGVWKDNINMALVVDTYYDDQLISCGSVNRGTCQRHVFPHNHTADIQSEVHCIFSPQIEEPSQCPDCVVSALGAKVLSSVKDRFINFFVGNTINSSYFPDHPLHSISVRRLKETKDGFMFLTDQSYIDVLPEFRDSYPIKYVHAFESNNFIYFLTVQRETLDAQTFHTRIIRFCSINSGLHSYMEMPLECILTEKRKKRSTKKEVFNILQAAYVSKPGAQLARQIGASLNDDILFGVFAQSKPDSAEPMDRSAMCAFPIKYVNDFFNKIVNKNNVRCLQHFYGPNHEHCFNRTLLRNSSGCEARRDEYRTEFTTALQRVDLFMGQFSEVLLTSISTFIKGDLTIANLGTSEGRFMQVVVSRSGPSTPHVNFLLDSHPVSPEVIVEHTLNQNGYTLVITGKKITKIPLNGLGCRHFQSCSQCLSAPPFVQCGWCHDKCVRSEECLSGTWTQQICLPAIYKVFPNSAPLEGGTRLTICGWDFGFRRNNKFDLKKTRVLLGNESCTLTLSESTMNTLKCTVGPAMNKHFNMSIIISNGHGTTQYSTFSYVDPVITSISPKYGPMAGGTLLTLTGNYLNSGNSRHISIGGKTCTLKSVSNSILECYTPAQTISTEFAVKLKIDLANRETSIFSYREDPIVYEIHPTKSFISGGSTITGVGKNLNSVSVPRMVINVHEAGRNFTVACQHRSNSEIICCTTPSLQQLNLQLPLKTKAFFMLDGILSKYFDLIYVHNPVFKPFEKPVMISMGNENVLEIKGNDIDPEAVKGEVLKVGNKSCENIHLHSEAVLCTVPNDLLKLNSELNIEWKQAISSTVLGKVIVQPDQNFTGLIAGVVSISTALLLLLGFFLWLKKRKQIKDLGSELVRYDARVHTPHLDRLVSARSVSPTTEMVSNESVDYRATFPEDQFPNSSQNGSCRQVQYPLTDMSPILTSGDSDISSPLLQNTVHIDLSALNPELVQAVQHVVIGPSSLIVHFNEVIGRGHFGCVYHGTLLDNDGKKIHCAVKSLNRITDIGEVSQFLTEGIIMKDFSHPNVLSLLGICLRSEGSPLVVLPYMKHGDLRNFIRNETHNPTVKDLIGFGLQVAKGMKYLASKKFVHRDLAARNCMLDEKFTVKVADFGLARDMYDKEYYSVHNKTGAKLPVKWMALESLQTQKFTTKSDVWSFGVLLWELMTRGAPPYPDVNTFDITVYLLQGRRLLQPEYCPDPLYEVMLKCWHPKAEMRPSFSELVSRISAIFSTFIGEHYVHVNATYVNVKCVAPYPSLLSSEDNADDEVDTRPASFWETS

- Kd [3]: 3 nM
- IC50 [4]: 2 nM
Structure (SMILES): CC(=O)Nc1cccc(-n2c(=O)n(C3CC3)c(=O)c3c(Nc4ccc(I)cc4F)n(C)c(=O)c(C)c32)c1 [TRAMETINIB]

- IC50 [5]: 360 nM
Structure (SMILES): O=C1NC(=O)[C@@H](c2cn3c4c(cccc24)CCC3)[C@@H]1c1c[nH]c2ccccc12 [TIVANTINIB]

The next lines start with the compound.

Structure (SMILES): CC(C)Oc1ccc2cccc(-n3cc(NC(N)=O)c(C(N)=O)n3)c2c1
- IC50 [1]: 30 nM

Structure (SMILES): CNc1nc(-c2ccc3c(c2)CCN3C(=O)c2ccccc2OCc2ccc(Cl)cc2)cs1
- IC50 [2]: 120 nM

Structure (SMILES): Cn1cnc2c(F)c(Nc3ccc(Br)cc3Cl)c(C(=O)NOCCO)cc21 [SELUMETINIB]
- Kd [3]: 14 nM
